Data: ChEMBL document CHEMBL1201862, “PubChem BioAssay data set” (2004)
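Dose response: 5 concentrations. Exposure: 48 h. Format: 96-well plates. Endpoint: linear interpolation; highest concentration if not reached. GI50: concentration for 50% inhibition of growth.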 Activity calls are given as the source filed them. No stated cut-off is given here; in the data, active = GI50 up to about 1.1 µM and inactive = higher.

Assays:
Assay in all cases: NCI tumour cell line growth inhibition, 48 h
HOP-62 = test system: HOP-62
UACC-62 = test system: UACC-62
SNB-19 = test system: SNB-19
OVCAR-8 = test system: OVCAR-8
U-251 = test system: U-251
ACHN = test system: ACHN
M14 = test system: M14
NCI-H226 = test system: NCI-H226
EKVX = test system: EKVX
NCI-H23 = test system: NCI-H23
UO-31 = test system: UO-31
SK-OV-3 = test system: SK-OV-3
HCT-15 = test system: HCT-15
IGROV-1 = test system: IGROV-1
COLO 205 = test system: COLO 205
KM12 = test system: KM12
CAKI-1 = test system: CAKI-1
HOP-92 = test system: HOP-92
TK-10 = test system: TK-10
NCI/ADR-RES = test system: NCI/ADR-RES

Measured: GI50

COc1ccc(CCc2ccc(O)c(C(=O)O)c2)cc1OC
inactive: HOP-62 > 100 µM | UACC-62 > 100 µM | SNB-19 > 100 µM | OVCAR-8 > 100 µM | U-251 > 100 µM | ACHN > 100 µM | M14 > 100 µM | NCI-H226 > 100 µM | EKVX > 100 µM | NCI-H23 > 100 µM | UO-31 > 100 µM | SK-OV-3 > 100 µM | IGROV-1 > 100 µM | COLO 205 > 100 µM | KM12 > 100 µM | CAKI-1 32.4 µM | HOP-92 > 100 µM | TK-10 > 100 µM | NCI/ADR-RES > 100 µM
84.1 µM: HCT-15

CC1(C)[C@H](C(=O)O)N2C(=O)[C@@H](NS(=O)(=O)c3ccc([N+](=O)[O-])cc3)[C@H]2S1(=O)=O
inactive: HOP-62 > 100 µM | UACC-62 > 100 µM | SNB-19 > 100 µM | OVCAR-8 > 100 µM | U-251 > 100 µM | ACHN > 100 µM | M14 > 100 µM | NCI-H226 > 100 µM | EKVX > 100 µM | NCI-H23 > 100 µM | UO-31 > 100 µM | SK-OV-3 > 100 µM | IGROV-1 > 100 µM | COLO 205 > 100 µM | KM12 > 100 µM | CAKI-1 > 100 µM | HOP-92 > 100 µM | TK-10 > 100 µM | NCI/ADR-RES > 100 µM
> 100 µM: HCT-15

O=C1c2ccccc2C(=O)c2[nH]c(=O)c(/C=N/Nc3ccc([N+](=O)[O-])cc3)nc21
3.67 µM: HCT-15
inactive: HOP-62 2.28 µM | UACC-62 2.09 µM | SNB-19 15.9 µM | OVCAR-8 15.8 µM | U-251 7.24 µM | ACHN 13.2 µM | M14 2.01 µM | NCI-H226 1.51 µM | EKVX 24.1 µM | NCI-H23 1.63 µM | UO-31 6.58 µM | SK-OV-3 9.73 µM | IGROV-1 14.4 µM | COLO 205 7.98 µM | KM12 5.73 µM | CAKI-1 17.3 µM | HOP-92 15.2 µM | TK-10 16.1 µM | NCI/ADR-RES 19.1 µM

COc1nc2c(N3CCCC3)nc(N3CCNCC3)nc2nc1NCc1ccccc1
active: HOP-62 0.855 µM | COLO 205 0.524 µM
1.72 µM: HCT-15
inactive: UACC-62 1.86 µM | SNB-19 1.71 µM | OVCAR-8 2.83 µM | U-251 1.35 µM | ACHN 1.98 µM | M14 1.65 µM | NCI-H226 2.34 µM | EKVX 2.77 µM | NCI-H23 2.16 µM | UO-31 1.48 µM | SK-OV-3 2.05 µM | IGROV-1 2.03 µM | KM12 1.61 µM | CAKI-1 2.38 µM | HOP-92 1.79 µM | TK-10 1.76 µM | NCI/ADR-RES 4.17 µM

CSC1(SC)N2Cc3ccccc3N=C2C1(c1ccccc1)c1ccccc1
inactive: HOP-62 > 44.9 µM | UACC-62 12.6 µM | SNB-19 > 48.3 µM | OVCAR-8 29.2 µM | U-251 15.1 µM | ACHN 14.1 µM | M14 12.2 µM | NCI-H226 > 100 µM | EKVX 6.67 µM | NCI-H23 16 µM | UO-31 24.8 µM | SK-OV-3 > 54.5 µM | IGROV-1 24.2 µM | COLO 205 5.89 µM | KM12 7.73 µM | CAKI-1 11 µM | HOP-92 4.12 µM | TK-10 > 35.1 µM | NCI/ADR-RES 16.4 µM
12.1 µM: HCT-15

CN(C)CC(CO)(CN(C)C)CN(C)C
> 100 µM: HCT-15
inactive: HOP-62 > 100 µM | UACC-62 > 100 µM | SNB-19 > 100 µM | OVCAR-8 > 100 µM | U-251 > 100 µM | ACHN > 100 µM | M14 > 100 µM | NCI-H226 > 100 µM | EKVX > 100 µM | NCI-H23 > 100 µM | UO-31 > 100 µM | SK-OV-3 > 100 µM | IGROV-1 > 100 µM | COLO 205 > 100 µM | KM12 > 100 µM | CAKI-1 > 100 µM | HOP-92 > 100 µM | TK-10 > 100 µM | NCI/ADR-RES > 100 µM

COc1ccc2nc3cc(Cl)ccc3c(NCCCCCC(=O)NC(COc3ccc4ccc5cccnc5c4n3)COc3ccc4ccc5cccnc5c4n3)c2c1
inactive: HOP-62 > 100 µM | UACC-62 21.7 µM | SNB-19 45.5 µM | OVCAR-8 41.2 µM | U-251 13.8 µM | ACHN 15.5 µM | M14 26.7 µM | NCI-H226 20.8 µM | EKVX 24.8 µM | NCI-H23 21.4 µM | UO-31 2.79 µM | SK-OV-3 36.9 µM | IGROV-1 16.3 µM | COLO 205 18.3 µM | KM12 27.9 µM | CAKI-1 25.3 µM | HOP-92 24.4 µM | TK-10 18.1 µM | NCI/ADR-RES 26.9 µM
35.3 µM: HCT-15

O=C(CCCN1CCC(C(O)c2ccc(F)cc2)CC1)c1ccc(F)cc1 (stereo not given)
inactive: HOP-62 62.8 µM | UACC-62 57 µM | SNB-19 60.7 µM | OVCAR-8 64.7 µM | U-251 55.5 µM | ACHN 50.6 µM | M14 51.6 µM | NCI-H226 53.3 µM | EKVX 62.1 µM | NCI-H23 66.5 µM | UO-31 23.1 µM | SK-OV-3 69.8 µM | IGROV-1 61.9 µM | COLO 205 55.7 µM | KM12 56.6 µM | CAKI-1 53.7 µM | HOP-92 20.6 µM | TK-10 41.4 µM | NCI/ADR-RES 66.5 µM
62.2 µM: HCT-15

C[N+](C)(C)c1ncnc2c1ncn2C1CC(O)C(CO)O1 (stereo not given)
> 100 µM: HCT-15
inactive: HOP-62 > 100 µM | UACC-62 > 100 µM | SNB-19 > 100 µM | OVCAR-8 > 100 µM | U-251 > 100 µM | ACHN > 100 µM | M14 > 100 µM | NCI-H226 > 100 µM | EKVX > 100 µM | NCI-H23 > 100 µM | UO-31 > 100 µM | SK-OV-3 > 100 µM | IGROV-1 > 100 µM | COLO 205 > 100 µM | KM12 > 100 µM | CAKI-1 > 100 µM | HOP-92 > 100 µM | TK-10 > 100 µM | NCI/ADR-RES > 100 µM

COc1cccc(/C=C2/S/C(=N/Nc3nc(C)c(C(C)=O)s3)NC2=O)c1O
26.2 µM: HCT-15
inactive: HOP-62 51.6 µM | UACC-62 20.1 µM | SNB-19 38 µM | OVCAR-8 34.3 µM | U-251 18.5 µM | ACHN 22 µM | M14 32.8 µM | NCI-H226 37.7 µM | EKVX 24.9 µM | NCI-H23 35.3 µM | UO-31 21.5 µM | SK-OV-3 66.8 µM | IGROV-1 35.9 µM | COLO 205 27.5 µM | KM12 36.2 µM | CAKI-1 47.5 µM | HOP-92 28.9 µM | TK-10 27.6 µM | NCI/ADR-RES 33.8 µM
